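Tested at 5 concentrations; 48 h exposure; 96-well plates; endpoints linearly interpolated, else capped at highest concentration. GI50 marks 50% less growth. TGI: concentration producing complete growth inhibition.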
Key:
Experiment in all cases: NCI anticancer screen, dose series, 48 h
[1] = system: SF-295 CNS
[2] = system: ACHN renal
[3] = system: UACC-257 melanoma
[4] = system: HCT-15 colon
[5] = system: MCF7 breast
[6] = system: SK-MEL-5 melanoma
[7] = system: UACC-62 melanoma
[8] = system: DU-145 prostate
[9] = system: OVCAR-8 ovarian
[10] = system: UO-31 renal

SMILES	GI50 [1] [µM]	TGI [1] [µM]	GI50 [2] [µM]	TGI [2] [µM]	GI50 [3] [µM]	TGI [3] [µM]	GI50 [4] [µM]	TGI [4] [µM]	GI50 [5] [µM]	TGI [5] [µM]	GI50 [6] [µM]	TGI [6] [µM]	GI50 [7] [µM]	TGI [7] [µM]	GI50 [8] [µM]	TGI [8] [µM]	GI50 [9] [µM]	TGI [9] [µM]	GI50 [10] [µM]	TGI [10] [µM]
O=C1C=CC(=O)N1CCCCCCCCCCN1C(=O)C=CC1=O	23.5	74.4	4.85	16.8	11.5	24.8	10.3	25.7	5.62	24.2	22.2	56.1	14.8	28.2	15.8	29.2	13.9	44	4.92	19.6
O=C1[C@H](c2ccccc2)C2c3ccccc3CCN12 (some centres not stated)	> 100	> 100	> 100	> 100	> 100	> 100	> 100	> 100	> 100	> 100	> 100	> 100	> 100	> 100	> 100	> 100	> 100	> 100		> 100
O=C(Nc1cccc2ccccc12)c1cc2ccccc2cc1O	1.83	4.32	2.44	7.89	1.6	5.03	3.03	11.6	1.7	7.71	1.57	3.69	1.49	10.7	3.84	> 100	2.52	8.25	1.22	4.95
NS(=O)(=O)c1ccc(NCc2cnc3ccccc3c2)cc1		> 100		> 100		> 100		> 100		> 100		> 100		> 100		> 100		> 100		> 100
Cc1cccc2c(=O)c3c(sc12)c(NCCN)nc1ccccc13	0.886	1.7	0.762	1.43	0.966	1.99	0.821	1.58	0.678	1.42	0.953	1.94	0.811	1.65	0.981	1.97	0.885	1.98	0.541	1.15
Cc1ccc(S(=O)(=O)N2C/C(=C\c3cc(F)cc(F)c3)C(=O)/C(=C/c3cc(F)cc(F)c3)C2)cc1	0.291	1.06	0.232	0.573	0.583	2.33	0.22	0.966	0.177	1.38	0.272	0.908	0.231	0.605	0.787	2.39	0.301	1.77	0.481	1.08
O=C(O)C#Cc1ccc([N+](=O)[O-])cc1		> 100		> 100		> 100		> 100		> 100		> 100		> 100		> 100		> 100		> 100
CCCNNC(=O)c1ccc(CNC(=O)/C=C/c2ccccc2)cc1	0.164	0.596	0.143	0.592	0.15		0.305	> 39	0.216	> 100	0.102	0.262	0.0825	0.249	0.218	> 100	0.114	> 100	0.0515	0.771
CCC1=C[C@H]2CN(CCc3c([nH]c4ccccc34)[C@@](C(=O)OC)(c3cc4c(cc3OC)N(C)[C@H]3[C@@](O)(C(=O)OC)[C@H](OC(C)=O)[C@]5(CC)[C@@H]6C[C@@H]6CN6CC[C@]43[C@@H]65)C2)C1	0.0142	3.15	0.144	6.02	3.42	7.33	0.0738	3.31	0.0131	3.61	0.0143	0.586	0.0211	5.12	0.0239	3.15	0.127	5.8	0.175	5.02
Cc1cc(Cl)ccc1Nc1nc(C(F)(F)F)ccc1C(=O)N/N=C/c1c(Cl)cccc1Cl	0.0741	0.376	0.298	2.03	0.393	> 100	0.145	> 100	0.233	0.749	0.573	2.44	0.489	6.38	0.548	> 100	0.445	> 100	0.301	
COc1ccc(C2SC(C)C(=O)N2NC(=O)C(O)c2ccccc2)cc1 (configuration not stated)	> 100	> 100	> 100	> 100	> 100	> 100	> 100	> 100	> 100	> 100	> 100	> 100	> 100	> 100	> 100	> 100	> 100	> 100	> 100	> 100
COc1ccc(/C=C/C(=O)c2ccc(NC(=O)CSc3nnc(-c4cc(OC)c(OC)c(OC)c4)o3)cc2)cc1	1.77	3.35	1.72	3.22	2.16	4.69	1.63	3.22	1.27	3.68	2.14	5.24	1.73	3.43	1.75	3.21	2.32	5.73	1.46	2.97
CNC(=S)N/N=C(/C)CCC/C(C)=N/NC(=S)NC		> 100		> 100		> 100		> 100		0.563		> 100		> 100		> 100		> 100		> 100
COC1(C)Cc2c(c(C)c(O)c3c2C(=O)C=C(Cl)C3=O)O1 (configuration not stated)		> 100		56.5		> 69.5		> 71.9		> 100		> 100		> 87.5		> 100		> 73.6		> 100
O=C(CN/C=C\C(=O)c1cc(Cl)ccc1Cl)c1ccccc1	20.4	50.7	> 100	> 100	24.7	61.9	18.3	37.6	22.7	51.9	18.1	33.7	20.7	52	33.4	> 100	26.4	71.4	34.4	> 100
O=C(O)c1cn(C2CC2)c2cc(N3CCN(C(=O)Nc4nc(-c5ccc(Cl)cc5)cs4)CC3)c(F)cc2c1=O	3.03	23.7	1.63	22	2.92	8.24	1.71	> 100	2.55	> 100	1.76	3.92	2.4	37.9	2.29	> 100	1.86	50.9	0.596	33.7
OCCCNC(=S)Nc1ccc(-c2nc3ccccc3s2)cc1	14.8	45	21.5	47.7	27.1	51.9	16.7	39.8	32.5	> 100	20.9	47.1	18.6	41	40.9	> 100	33.7	91.9	12	60.7
COc1ccc2c(c1)N(CCO)C1=C(C(=O)OC1)C2c1cccc(Br)c1 (configuration not stated)	0.0319	1.52	0.0824	> 100	0.034	40.7	0.0659	> 100	0.0391	> 100	0.0407	0.585	0.048	44.5	0.156	1.15	0.14	13.9	0.0776	> 85.3
CCOC(=O)C1=C(N)Oc2cc(OC)ccc2C1c1ccc(F)c(F)c1 (configuration not stated)	1.91	15.5	5.74	19.8	11.5	24	0.503	14.3	0.452	18.7	1.68	12.6	0.558	15.4	2.56	11.4	3.28	19.2	5.22	19.7
CCN1CCN(Cc2ccc3cc(C(=O)Nc4cc(NC(=O)c5ccc6c(c5)OCCO6)ccc4F)ccc3n2)CC1	0.0475	2.92	0.0274	0.267	0.133	10.5	0.0376	2.25	0.183	6.75	0.108	0.756	0.0575	1.19	0.0371	1.18	0.0571	12.5	0.0376	1.13

From PubChem BioAssay (NCI)
